Reference: patent publication US20090118202A1, “COMPOSITIONS AND METHODS OF TREATING HYPERTENSION WITH TANNIN COMPLEXES” (Texas Tech University, priority 2007, published 2009)

What was measured:
MAP-kinases p42 and p44 = assay: MAP-kinase phosphorylation in rat liver cells exposed to tannic acid (Western blot); type: cell-based; conditions: pretreatment of cells with the inhibitor
Description: FIGS. 6A-6C are images of a Western blot illustrating rat liver cells exposed to tannic acid in the presence or absence of the MAP-Kinase specific cell permeable inhibitor PD 98059 for 20 hours and total cell extracts were prepared. Equal amount of proteins were resolved by 8% polyacrylamide gel electrophoresis and immunoblotted with phospho-specific MAP-Kinase antibody in FIG. 6A, anti-MAP-kinase antibody in FIG. 6B, AT1 specific antibody in FIG. 6C top or anti-beta-actin antibody in FIG. 6C bottom. Immunoreactive bands were visualized using a chemiluminescence Western blotting system according to the manufacturer's instruction. In each plate protein concentration was determined using Bio-Rad protein assay reagent.

AT1 receptor = assay: AT1 specific AngII binding in WB cells exposed to tannic acid; type: cell-based, rat; conditions: pretreatment of cells with the inhibitor
Description: The present invention provides the use of hydrolysable tannic acids to affect angiotensin type 1 (AT1) receptor expression. The present invention used WB (i.e., a continuously passaged rat liver epithelial cell line) which expresses the native AT1 receptor. Under normal culture conditions, cells were exposed to tannic acid and changes in receptor expression and signaling intermediates were determined.
FIG. 3A is an image of a plot illustrating the effects of tannic acid on native AT1, rat liver cells were exposed to tannic acid at indicated concentration for 20 hours.

In the case of COc1cccc(-c2cc(=O)c3ccccc3o2)c1N [MAP kinase specific inhibitor, PD98059], the “prevention of tannic acid induced MAP-kinases phosphorylation” value (MAP-kinases p42 and p44) is reported as “ineffective” and the “prevention of tannic acid induced down regulation of the AT1 receptor” value (AT1 receptor) is reported as “ineffective”.
